Reference: ChEMBL document CHEMBL3393036, “Tetra-substituted pyridinylimidazoles as dual inhibitors of p38α mitogen-activated protein kinase and c-Jun N-terminal kinase 3 for potential treatment of neurodegenerative diseases” (J Med Chem, 2015)

target: Epidermal growth factor receptor (Homo sapiens) (UniProt P00533); assay: Inhibition of EGFR (unknown origin) assessed as phosphorylation of ATF-2 at 5.5 uM by ELISA
Sequence (P00533 whole entry): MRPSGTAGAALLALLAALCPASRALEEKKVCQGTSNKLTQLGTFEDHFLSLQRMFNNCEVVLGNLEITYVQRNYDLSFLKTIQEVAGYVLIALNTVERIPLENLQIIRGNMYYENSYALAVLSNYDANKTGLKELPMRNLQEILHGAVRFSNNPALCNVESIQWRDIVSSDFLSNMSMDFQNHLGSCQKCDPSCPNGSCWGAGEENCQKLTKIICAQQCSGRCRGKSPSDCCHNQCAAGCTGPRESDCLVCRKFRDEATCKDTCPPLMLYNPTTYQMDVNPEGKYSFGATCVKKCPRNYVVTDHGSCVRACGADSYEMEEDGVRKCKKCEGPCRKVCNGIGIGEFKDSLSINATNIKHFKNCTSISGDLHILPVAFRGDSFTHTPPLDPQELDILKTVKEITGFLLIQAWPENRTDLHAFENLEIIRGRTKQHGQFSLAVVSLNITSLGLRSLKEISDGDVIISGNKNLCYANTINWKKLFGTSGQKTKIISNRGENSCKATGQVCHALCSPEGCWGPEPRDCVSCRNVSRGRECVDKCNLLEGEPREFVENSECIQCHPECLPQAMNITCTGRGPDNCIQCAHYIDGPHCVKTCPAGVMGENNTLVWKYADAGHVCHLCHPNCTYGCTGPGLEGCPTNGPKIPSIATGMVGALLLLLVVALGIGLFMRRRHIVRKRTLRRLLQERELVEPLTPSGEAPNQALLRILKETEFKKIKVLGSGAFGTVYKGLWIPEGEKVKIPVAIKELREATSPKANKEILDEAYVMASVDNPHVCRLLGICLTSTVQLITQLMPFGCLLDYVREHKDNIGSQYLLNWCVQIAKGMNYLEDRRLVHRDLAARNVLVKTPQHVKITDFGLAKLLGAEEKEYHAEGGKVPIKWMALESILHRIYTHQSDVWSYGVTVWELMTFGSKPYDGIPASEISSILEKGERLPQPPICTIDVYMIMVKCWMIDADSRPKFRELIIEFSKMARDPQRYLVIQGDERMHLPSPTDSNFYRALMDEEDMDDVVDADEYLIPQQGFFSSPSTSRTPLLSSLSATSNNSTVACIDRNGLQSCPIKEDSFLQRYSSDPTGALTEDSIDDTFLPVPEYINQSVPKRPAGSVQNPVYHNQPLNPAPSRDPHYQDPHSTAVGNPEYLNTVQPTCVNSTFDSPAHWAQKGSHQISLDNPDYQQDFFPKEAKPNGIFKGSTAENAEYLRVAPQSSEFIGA

How did the inhibition turn out when `CC(=O)Nc1cc(-c2c(-c3ccc(F)cc3)nc(S/C=C\C(=O)O)n2C2CC2)ccn1` was run?
The inhibition was 51.8%.

target: T1, Activin receptor type-1 (Homo sapiens) (UniProt Q04771); assay: Inhibition of ALK2 (unknown origin) assessed as phosphorylation of ATF-2 at 5.5 uM by ELISA
T1 sequence (whole entry): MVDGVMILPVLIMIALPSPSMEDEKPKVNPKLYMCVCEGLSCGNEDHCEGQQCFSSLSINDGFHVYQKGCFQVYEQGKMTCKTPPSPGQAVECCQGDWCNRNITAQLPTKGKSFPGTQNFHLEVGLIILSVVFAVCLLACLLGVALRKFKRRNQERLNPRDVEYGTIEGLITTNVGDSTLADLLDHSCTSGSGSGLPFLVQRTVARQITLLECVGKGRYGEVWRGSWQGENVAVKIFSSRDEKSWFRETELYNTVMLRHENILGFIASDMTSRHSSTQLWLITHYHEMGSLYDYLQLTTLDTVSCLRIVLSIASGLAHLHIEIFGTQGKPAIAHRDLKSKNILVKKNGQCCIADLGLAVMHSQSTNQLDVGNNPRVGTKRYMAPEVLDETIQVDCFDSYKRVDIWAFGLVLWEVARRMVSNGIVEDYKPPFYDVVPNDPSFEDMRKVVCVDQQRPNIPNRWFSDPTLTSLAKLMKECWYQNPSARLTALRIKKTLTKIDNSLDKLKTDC

How did the inhibition turn out when `CC(=O)Nc1cc(-c2c(-c3ccc(F)cc3)nc(S/C=C\C(=O)O)n2C2CC2)ccn1` was run?
The inhibition was 60.6%.

target: Glycogen synthase kinase-3 beta (Homo sapiens) (UniProt P49841); assay: Inhibition of GSK3beta (unknown origin) at 5.5 uM by Caliper Mobility Shift Assay
Sequence (P49841 whole entry, looked up): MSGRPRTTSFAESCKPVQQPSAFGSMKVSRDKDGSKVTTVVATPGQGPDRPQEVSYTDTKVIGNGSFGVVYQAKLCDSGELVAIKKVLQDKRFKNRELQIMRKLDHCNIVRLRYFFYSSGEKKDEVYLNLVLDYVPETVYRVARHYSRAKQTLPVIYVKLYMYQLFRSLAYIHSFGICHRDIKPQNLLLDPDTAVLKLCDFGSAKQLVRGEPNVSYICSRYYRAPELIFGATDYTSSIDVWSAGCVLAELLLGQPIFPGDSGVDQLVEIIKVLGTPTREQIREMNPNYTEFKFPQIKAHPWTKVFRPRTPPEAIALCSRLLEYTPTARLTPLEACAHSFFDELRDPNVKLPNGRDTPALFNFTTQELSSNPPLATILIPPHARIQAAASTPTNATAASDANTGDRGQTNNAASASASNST

Which inhibition does the source give for `COC(Cn1c(SC2CCC(C(=O)O)CC2O)nc(-c2ccc(F)cc2)c1-c1ccnc(NC(C)=O)c1)OC` (configuration not stated) here?
The inhibition was under 50%.

`CC(=O)Nc1cc(-c2c(-c3ccc(F)cc3)nc(S/C=C\C(=O)O)n2C2CCCCC2)ccn1` was tested. Which inhibition did it give?
The inhibition was under 50%.

`CC(=O)Nc1cc(-c2c(-c3ccc(F)cc3)nc(S/C=C\C(=O)O)n2CC2CCCO2)ccn1` (racemic) was tested. Which inhibition did it give?
Its inhibition is under 50%.

With `CC(=O)Nc1cc(-c2c(-c3ccc(F)cc3)nc(S/C=C\C(=O)O)n2C2CC2)ccn1` as the compound, how does the inhibition read?
The inhibition was under 50%.

For `CC(=O)Nc1cc(-c2c(-c3ccc(F)cc3)nc(Sc3cccc(I)n3)n2C2CCCCC2)ccn1`, which inhibition is on record?
The inhibition was under 50%.

target: Interleukin-1 receptor-associated kinase 1 (Homo sapiens) (UniProt P51617); assay: Inhibition of IRAK1 (unknown origin) at 5.5 uM by Caliper Mobility Shift Assay
Sequence (P51617 whole entry, looked up): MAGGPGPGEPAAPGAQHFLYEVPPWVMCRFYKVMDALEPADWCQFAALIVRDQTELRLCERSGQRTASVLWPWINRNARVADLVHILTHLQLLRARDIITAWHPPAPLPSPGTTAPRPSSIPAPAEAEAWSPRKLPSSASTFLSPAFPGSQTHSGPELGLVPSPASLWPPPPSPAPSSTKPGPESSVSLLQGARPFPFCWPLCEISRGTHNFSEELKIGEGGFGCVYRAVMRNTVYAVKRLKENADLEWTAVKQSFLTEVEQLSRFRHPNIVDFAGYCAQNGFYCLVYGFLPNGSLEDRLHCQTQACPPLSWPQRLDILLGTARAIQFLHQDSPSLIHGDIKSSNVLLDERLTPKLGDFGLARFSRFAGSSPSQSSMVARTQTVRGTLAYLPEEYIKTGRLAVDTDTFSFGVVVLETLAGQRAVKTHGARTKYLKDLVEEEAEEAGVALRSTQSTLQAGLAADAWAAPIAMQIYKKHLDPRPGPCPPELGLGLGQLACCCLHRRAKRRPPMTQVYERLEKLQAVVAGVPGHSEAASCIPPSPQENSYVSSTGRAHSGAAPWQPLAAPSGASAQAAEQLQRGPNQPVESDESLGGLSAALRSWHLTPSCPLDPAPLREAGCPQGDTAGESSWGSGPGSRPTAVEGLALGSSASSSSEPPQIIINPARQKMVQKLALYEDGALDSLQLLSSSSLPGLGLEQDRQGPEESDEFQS

How did the inhibition turn out when `COC(Cn1c(SC2CCC(C(=O)O)CC2O)nc(-c2ccc(F)cc2)c1-c1ccnc(NC(C)=O)c1)OC` (configuration not stated) was run?
The inhibition was under 50%.

Which inhibition does the source give for `CC(=O)Nc1cc(-c2c(-c3ccc(F)cc3)nc(S/C=C\C(=O)O)n2C2CCCCC2)ccn1` here?
The inhibition was under 50%.

`CC(=O)Nc1cc(-c2c(-c3ccc(F)cc3)nc(S/C=C\C(=O)O)n2CC2CCCO2)ccn1` (racemic) was tested. Which inhibition did it give?
Its inhibition is under 50%.

How did the inhibition turn out when `CC(=O)Nc1cc(-c2c(-c3ccc(F)cc3)nc(S/C=C\C(=O)O)n2C2CC2)ccn1` was run?
The inhibition was under 50%.

How did the inhibition turn out when `CC(=O)Nc1cc(-c2c(-c3ccc(F)cc3)nc(Sc3cccc(I)n3)n2C2CCCCC2)ccn1` was run?
Its inhibition is under 50%.

target: TRAF2 and NCK-interacting protein kinase (Homo sapiens) (UniProt Q9UKE5); assay: Inhibition of TNIK (unknown origin) at 5.5 uM by Caliper Mobility Shift Assay
Sequence (Q9UKE5 whole entry, looked up): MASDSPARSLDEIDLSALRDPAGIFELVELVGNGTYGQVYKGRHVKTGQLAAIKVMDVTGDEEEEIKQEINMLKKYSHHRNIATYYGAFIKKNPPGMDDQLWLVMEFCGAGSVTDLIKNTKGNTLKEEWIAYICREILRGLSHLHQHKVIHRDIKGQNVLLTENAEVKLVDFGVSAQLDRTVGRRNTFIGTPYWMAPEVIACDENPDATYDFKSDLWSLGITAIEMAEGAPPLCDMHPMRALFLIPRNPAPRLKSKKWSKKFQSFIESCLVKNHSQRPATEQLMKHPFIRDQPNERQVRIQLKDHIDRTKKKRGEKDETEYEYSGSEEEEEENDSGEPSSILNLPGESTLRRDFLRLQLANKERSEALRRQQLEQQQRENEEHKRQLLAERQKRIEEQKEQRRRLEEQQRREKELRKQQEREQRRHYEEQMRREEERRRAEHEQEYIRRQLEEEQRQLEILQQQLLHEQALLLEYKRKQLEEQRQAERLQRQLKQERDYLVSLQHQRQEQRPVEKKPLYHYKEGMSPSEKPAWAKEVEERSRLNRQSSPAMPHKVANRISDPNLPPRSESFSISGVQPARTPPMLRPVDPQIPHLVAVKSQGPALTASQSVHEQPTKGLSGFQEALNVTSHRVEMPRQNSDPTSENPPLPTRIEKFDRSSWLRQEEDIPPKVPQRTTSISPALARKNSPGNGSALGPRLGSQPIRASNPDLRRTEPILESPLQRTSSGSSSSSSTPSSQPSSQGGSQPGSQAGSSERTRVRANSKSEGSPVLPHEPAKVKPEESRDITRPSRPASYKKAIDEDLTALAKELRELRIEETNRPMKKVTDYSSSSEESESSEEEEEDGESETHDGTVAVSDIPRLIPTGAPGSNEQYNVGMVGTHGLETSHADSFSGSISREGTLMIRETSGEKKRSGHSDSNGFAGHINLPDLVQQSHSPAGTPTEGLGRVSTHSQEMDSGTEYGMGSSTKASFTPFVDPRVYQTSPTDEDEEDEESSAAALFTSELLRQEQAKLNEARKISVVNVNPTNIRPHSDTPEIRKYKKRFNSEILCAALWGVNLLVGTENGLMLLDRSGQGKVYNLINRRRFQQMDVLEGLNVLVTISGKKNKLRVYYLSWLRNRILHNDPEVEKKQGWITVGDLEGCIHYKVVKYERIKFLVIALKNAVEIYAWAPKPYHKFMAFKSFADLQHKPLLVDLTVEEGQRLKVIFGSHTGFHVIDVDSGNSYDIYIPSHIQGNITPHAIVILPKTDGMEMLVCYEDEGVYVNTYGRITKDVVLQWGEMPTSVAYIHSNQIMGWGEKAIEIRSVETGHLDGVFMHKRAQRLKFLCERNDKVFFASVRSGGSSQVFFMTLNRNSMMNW

With `COC(Cn1c(SC2CCC(C(=O)O)CC2O)nc(-c2ccc(F)cc2)c1-c1ccnc(NC(C)=O)c1)OC` (configuration not stated) as the compound, how does the inhibition read?
Its inhibition is under 50%.

How did the inhibition turn out when `CC(=O)Nc1cc(-c2c(-c3ccc(F)cc3)nc(S/C=C\C(=O)O)n2C2CCCCC2)ccn1` was run?
The inhibition was under 50%.

For `CC(=O)Nc1cc(-c2c(-c3ccc(F)cc3)nc(S/C=C\C(=O)O)n2CC2CCCO2)ccn1` (racemic), which inhibition is on record?
Its inhibition is under 50%.

Which inhibition does the source give for `CC(=O)Nc1cc(-c2c(-c3ccc(F)cc3)nc(S/C=C\C(=O)O)n2C2CC2)ccn1` here?
The inhibition was under 50%.

`CC(=O)Nc1cc(-c2c(-c3ccc(F)cc3)nc(Sc3cccc(I)n3)n2C2CCCCC2)ccn1` was tested. Which inhibition did it give?
The inhibition was under 50%.
